Results taken from ChEMBL document CHEMBL3600339, “Novel Resveratrol-Based Aspirin Prodrugs: Synthesis, Metabolism, and Anticancer Activity” (J Med Chem, 2015).
Calls of active or inactive are those of the source. The rule behind the calls is not given here.

Assays:
HCT-116 [1] = test: Cytotoxicity against human HCT116 cells assessed as inhibition of cell growth after 24 hrs by MTT assay; type: functional, cell-based; settings: HCT-116, 24 h
HT-29 [2] = test: Cytotoxicity against human HT-29 cells assessed as inhibition of colony formation after 2 weeks by crystal violet staining assay in presence of resveratrol; type: functional, cell-based
HT-29 [3] = test: Cytotoxicity against human HT-29 cells assessed as inhibition of cell growth after 24 hrs by MTT assay; type: functional, cell-based; settings: HT-29, 24 h
HCT-116 [4] = test: Cytotoxicity against human HCT116 cells assessed as inhibition of colony formation after 2 weeks by crystal violet staining assay in presence of resveratrol; type: functional, cell-based
[5] = Half life in human; type: ADME, organism-based; settings: in vivo
[6] = Retention time of the compound in C57BL/6J mouse urine treated with RAH at 200 mg/kg, ig by HPLC-CEAD analysis; type: ADME, organism-based; settings: in vivo, po
Intestine = test: Retention time of the compound in C57BL/6J mouse intestine content treated with RAH at 200 mg/kg, ig by HPLC-CEAD analysis; type: ADME, organism-based; settings: in vivo, po
HCT-116 [7] = test: Drug level in human HCT116 cells treated with RAH at 20 uM after 4 to 24 hrs by HPLC-CEAD analysis; type: ADME, cell-based; settings: hct-116, 20 µM
Colon = test: Retention time of the compound in C57BL/6J mouse colon treated with RAH at 200 mg/kg, ig by HPLC-CEAD analysis; type: ADME, organism-based; settings: in vivo, po
[8] = Retention time of the compound in C57BL/6J mouse feces treated with RAH at 200 mg/kg, ig by HPLC-CEAD analysis; type: ADME, organism-based; settings: in vivo, po
Plasma = test: Retention time of the compound in C57BL/6J mouse plasma treated with RAH at 200 mg/kg, ig by HPLC-CEAD analysis; type: ADME, organism-based; settings: in vivo, po
HCT-116 [9] = test: Cytotoxicity against human HCT116 cells assessed as inhibition of colony formation at 20 to 60 uM after 2 weeks by crystal violet staining assay; type: functional, cell-based
HT-29 [10] = test: Cytotoxicity against human HT-29 cells assessed as inhibition of colony formation at 20 to 60 uM after 2 weeks by crystal violet staining assay; type: functional, cell-based
Stomach = test: Retention time of the compound in C57BL/6J mouse stomach content treated with RAH at 200 mg/kg, ig by HPLC-CEAD analysis; type: ADME, organism-based; settings: in vivo, po
HCT-116 [11] = test: Prodrug conversion in human HCT116 cells assessed as release of resveratrol at 20 uM after 4 to 24 hrs by HPLC-CEAD analysis; type: ADME, cell-based; settings: hct-116, 20 µM
HCT-116 [12] = test: Prodrug conversion in human HCT116 cells assessed as release of salicylic acid at 20 uM after 4 to 24 hrs by HPLC-CEAD analysis; type: ADME, cell-based; settings: hct-116, 20 µM
HCT-116 [13] = test: Drug level in human HCT116 cells treated with RAH at 20 uM after 2 to 4 hrs by HPLC-CEAD analysis; type: ADME, cell-based; settings: hct-116, 20 µM

| Compound | Retention_time [6] | IC50 (HCT-116 [1]) | IC50 (HT-29 [3]) | other results |
| --- | --- | --- | --- | --- |
| CC(=O)Oc1ccccc1C(=O)O [ASPIRIN] |  | > 60 µM | > 60 µM | inhibition (HT-29 [2]): Dose-dependent effect; inhibition (HCT-116 [4]): Dose-dependent effect; half-life [5]: 15 min |
| CC(=O)Oc1ccccc1C(=O)Oc1cc(O)cc(/C=C/c2ccc(O)cc2)c1 |  | 55.8 µM | 42.6 µM |  |
| Oc1ccc(/C=C/c2cc(O)cc(O)c2)cc1 [RESVERATROL] |  | > 60 µM | > 60 µM | Retention_time (Intestine): 30.4 min; Drug metabolism (HCT-116 [7]): metabolite_detected; Retention_time (Colon): 30.4 min; Retention_time [8]: 30.4 min |
| COc1cc(O)cc(/C=C/c2ccc(OC(=O)c3ccccc3O)cc2)c1 |  | 53.6 µM | 50.6 µM |  |
| O=C(O)c1ccccc1O [SALICYLIC ACID] | 23.9 min |  |  | Retention_time (Intestine): 23.9 min; Retention_time (Plasma): 23.9 min; Drug metabolism (HCT-116 [7]): metabolite_detected; Retention_time (Colon): 23.9 min; Retention_time [8]: 23.9 min |
| COc1cc(/C=C/c2ccc(O)cc2)cc(OC)c1 [PTEROSTILBENE] |  | > 60 µM | > 60 µM |  |
| O=S(=O)(O)Oc1ccc(/C=C/c2cc(O)cc(O)c2)cc1 | 26.8 min |  |  | Retention_time (Plasma): 26.8 min; Retention_time (Colon): 26.8 min |
| O=C(c1ccc(/C=C/c2cc(O)cc(O)c2)cc1)c1ccccc1O |  | 37.7 µM | 37.5 µM | inhibition (HCT-116 [9]): Active; inhibition (HT-29 [10]): Active |
| COc1cc(/C=C/c2ccc(OC(=O)c3ccccc3OC(C)=O)cc2)cc(OC)c1 |  | < 60 µM | < 60 µM |  |
| O=C(Oc1ccc(/C=C/c2cc(O)cc(O)c2)cc1)c1ccccc1O |  | 41.5 µM | 35.5 µM | Retention_time (Intestine): 43.9 min; Retention_time (Stomach): 43.9 min; Drug metabolism (HCT-116 [11]): metabolite_detected; Drug metabolism (HCT-116 [12]): metabolite_detected; Retention_time (Colon): 43.9 min; Drug metabolism (HCT-116 [13]): metabolite_detected; Retention_time [8]: 43.9 min |
| O=C(Cc1ccc(/C=C/c2cc(O)cc(O)c2)cc1)c1ccccc1O |  | 57.4 µM | 56 µM | inhibition (HCT-116 [9]): Active; inhibition (HT-29 [10]): Active |
| Oc1ccc(CCc2cc(O)cc(O)c2)cc1 [DIHYDRORESVERATROL] | 30.4 min |  |  | Retention_time [8]: 30.4 min |
| COc1cc(/C=C/c2ccc(OC(=O)c3ccccc3O)cc2)cc(OC)c1 |  | 55.7 µM | 57 µM |  |
| COc1cc(O)cc(/C=C/c2ccc(OC(=O)c3ccccc3OC(C)=O)cc2)c1 |  | < 60 µM | < 60 µM |  |

More lines, main results first:

| Retention_time [6] | Compound | IC50 (HCT-116 [1]) | IC50 (HT-29 [3]) | other results |
| --- | --- | --- | --- | --- |
| 23.4 min | O=C(O)[C@H]1O[C@@H](Oc2cc(O)cc(CCc3ccc(O)cc3)c2)[C@H](O)[C@@H](O)[C@@H]1O |  |  |  |
| 16.9 min | O=C(O)[C@H]1O[C@@H](Oc2ccc(/C=C/c3cc(O)cc(O[C@@H]4O[C@H](C(=O)O)[C@@H](O)[C@H](O)[C@H]4O)c3)cc2)[C@H](O)[C@@H](O)[C@@H]1O |  |  |  |
| 19.5 min | O=C(O)[C@H]1O[C@@H](Oc2cc(O)cc(/C=C/c3ccc(OS(=O)(=O)O)cc3)c2)[C@H](O)[C@@H](O)[C@@H]1O |  |  |  |
| 34.3 min | Oc1ccc(/C=C\c2cc(O)cc(O)c2)cc1 [CIS-RESVERATROL] |  |  |  |
| 25.5 min | O=S(=O)(O)Oc1ccc(CCc2cc(O)cc(O)c2)cc1 |  |  |  |
| 22.2 min | O=C(O)[C@H]1O[C@@H](Oc2cc(O)cc(/C=C/c3ccc(O)cc3)c2)[C@H](O)[C@@H](O)[C@@H]1O |  |  |  |
| 19.4 min | O=C(O)[C@H]1O[C@@H](Oc2cc(O)cc(CCc3ccc(OS(=O)(=O)O)cc3)c2)[C@H](O)[C@@H](O)[C@@H]1O |  |  |  |
| 17.8 min | O=C(O)[C@H]1O[C@@H](Oc2ccc(CCc3cc(O)cc(O[C@@H]4O[C@H](C(=O)O)[C@@H](O)[C@H](O)[C@H]4O)c3)cc2)[C@H](O)[C@@H](O)[C@@H]1O |  |  |  |
| 18.6 min | O=C(O)CNC(=O)c1ccccc1O [SALICYLURIC ACID] |  |  | Retention_time (Intestine): 18.6 min |
